Calls of active or inactive are those of the source. No rule for the calls is given here.
Each compound was assayed against Serine/threonine-protein kinase mTOR (Homo sapiens) (UniProt P42345) (assay: mTOR FRB domain ligand binding – biophysical, NMR (AID 1648)). Conditions: NMR binding to FRB domain, chemical shift.
Chain of Serine/threonine-protein kinase mTOR (Homo sapiens) (P42345 2015-2114): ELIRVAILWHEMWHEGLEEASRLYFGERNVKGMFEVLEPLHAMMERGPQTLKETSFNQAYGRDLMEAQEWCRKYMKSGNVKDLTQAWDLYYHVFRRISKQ

| Compound | Kd |
| --- | --- |
| Cc1ccc2c(c1)CCCN2C(=O)c1c(C)noc1C | > 4 mM (inactive) |
| C[C@]12CC(=O)C3C(CC[C@@H]4C[C@H](O)CC[C@]34C)C1CC[C@]2(O)C(=O)CO (some centres undefined) | > 4 mM (inactive) |
| CC(=O)Oc1c2c(c(CC=C(C)C)c3c1C(=O)C1=C[C@@H]4CC5C(C)(C)OC(C/C=C(\C)C(=O)O)(C4=O)[C@@]15O3)OC(C)(CCC=C(C)C)C=C2 (some centres undefined) | > 4 mM (inactive) |
| Cn1cnnc1SCCCNC(=O)Nc1ncccn1 | > 4 mM (inactive) |
| CS(=O)(=O)c1ccccc1C(=O)Nc1nccs1 | > 4 mM (inactive) |
| Cc1nc2ccccc2c(=O)n1CCCn1ccnc1 | > 4 mM (inactive) |
| COc1ccc(C(=O)NC2=NCCS2)cc1OC | > 4 mM (inactive) |
| Cc1nc2ccccc2c(=O)n1-c1cccc(O)c1 | > 4 mM (inactive) |
| CC(=O)Nc1cc2c(cc1C(=O)C(C)C)OCCO2 | > 4 mM (inactive) |
| O=C(Nc1ccccc1C(F)(F)F)c1cnccn1 | > 4 mM (inactive) |
| Oc1cc(O)c2c(c1)O[C@H](c1ccc(O)c(O)c1)[C@H](O)C2 | > 4 mM (inactive) |
| NC12CC3CC(C1)CC(O)(C3)C2 | > 4 mM (inactive) |
| O=C(NCc1ccccc1Br)c1ccco1 | > 4 mM (inactive) |
| O=C(O)C1Cc2c([nH]c3ccccc23)CN1 (centres undefined) | > 4 mM (inactive) |
| O=C(CSc1ncn[nH]1)c1ccccc1 | > 4 mM (inactive) |
| Cc1cc(NC(=O)c2cccc(S(C)(=O)=O)c2)no1 | > 4 mM (inactive) |
| NC(Cc1c[nH]c2ccccc12)C(=O)O (centres undefined) | > 4 mM (inactive) |
| CCOc1cc(C)c(Cl)cc1S(=O)(=O)N(C)C | > 4 mM (inactive) |
| Nc1nc(-c2ccccc2)cc(=O)[nH]1 | > 4 mM (inactive) |
| N#Cc1cc2c(nc1SCc1ccncc1)CCC2 | > 4 mM (inactive) |

| Compound | Kd |
| --- | --- |
| CSc1nc(-c2ccccc2)ccc1C(N)=O | > 4 mM (inactive) |
| Nc1ccccc1-c1nc2ccccc2[nH]1 | > 4 mM (inactive) |
| C(=Nn1cnnc1)c1ccccc1 | > 4 mM (inactive) |
| O=C1CCNc2cc3ccccc3cc21 | > 4 mM (inactive) |
| O=c1c2ccccc2ncn1C1CCCCC1 | > 4 mM (inactive) |
| Nc1ccc2c(c1)C(=O)OC2 | > 4 mM (inactive) |
| CC(=O)Nc1sccc1C(N)=O | > 4 mM (inactive) |
| OCc1ncoc1-c1ccccc1 | > 4 mM (inactive) |
| O=C(O)C1(S(=O)(=O)c2ccccc2)CC1 | > 4 mM (inactive) |
| CCc1noc(C)c1C(=O)Nc1ncc(C)s1 | > 4 mM (inactive) |
| CSc1ccc(/C=c2\sc3ncnn3c2=O)cc1 | > 4 mM (inactive) |
| Cc1cc(C)n(/N=C\c2cccs2)c(=O)c1C(N)=O | > 4 mM (inactive) |
| O=C(/C=C/c1ccco1)NC1=NCCS1 | > 4 mM (inactive) |
| Cc1ccc(OCC(=O)n2cnnc2N)c(C)c1 | > 4 mM (inactive) |
| Cc1nnc(N2CCN(Cc3ccccc3)CC2)[nH]c1=O | > 4 mM (inactive) |
| CNS(=O)(=O)c1cc(OC)ccc1OC | > 4 mM (inactive) |
| Cc1nn(C)c(C)c1C(=O)O | > 4 mM (inactive) |
| COc1c2c(cc3occ(-c4ccc5c(c4)OCO5)c(=O)c13)OC(C)(C)C=C2 | > 4 mM (inactive) |
| CC1=CCc2c(cc3oc(C)cc(=O)c3c2O)OC1 | > 4 mM (inactive) |
| OC1CCN(Cc2ccc[nH]2)CC1 | > 4 mM (inactive) |

| Compound | Kd |
| --- | --- |
| Cc1ccccc1NS(=O)(=O)c1ccc(F)cc1 | > 4 mM (inactive) |
| Cn1ncc(SCc2ccco2)c(Cl)c1=O | > 4 mM (inactive) |
| Cc1cccc(-n2c(N)cc(=O)[nH]c2=S)c1C | > 4 mM (inactive) |
| CCc1cccc(C)c1NC(=O)c1cc(C)oc1C | > 4 mM (inactive) |
| CC(=O)N(C)Cc1nc2ccccc2n1C | > 4 mM (inactive) |
| CCOC(=O)C1CCN(Cc2ccccc2)CC1=O (centres undefined) | > 4 mM (inactive) |
| C[C@@H]1O[C@@H](O[C@H]2C[C@@H](O)[C@]3(CO)C4C(CC[C@]3(O)C2)[C@@]2(O)CC[C@H](C3=CC(=O)OC3)[C@@]2(C)C[C@H]4O)[C@H](O)[C@H](O)[C@H]1O (some centres undefined) | > 4 mM (inactive) |
| O=C(Nc1cnccn1)c1cccc(C(F)(F)F)c1 | > 4 mM (inactive) |
| C(=N\c1ncn[nH]1)/c1cccs1 | > 4 mM (inactive) |
| Cc1ccc(-n2cnnn2)c2cccnc12 | > 4 mM (inactive) |
| CC(=O)NC12CC3CC(C)(C1)CC(NC(C)=O)(C3)C2 | > 4 mM (inactive) |
| O=C(O)C1CCN(c2ccc(C(F)(F)F)cn2)CC1 | > 4 mM (inactive) |
| O=C(O)c1ccc2c(c1)OCCO2 | > 4 mM (inactive) |
| COc1ccc(S(=O)(=O)N2CCC(C(N)=O)CC2)cc1 | > 4 mM (inactive) |
| CN=C1SC(CC(=O)Nc2ccc(O)cc2)C(=O)N1C (centres undefined) | > 4 mM (inactive) |
| O=C1Cc2ccccc2N1c1ccccc1 | > 4 mM (inactive) |
| CC(=O)Nc1ccc(S(=O)(=O)NC2=NCCS2)cc1 | > 4 mM (inactive) |
| COc1ccc(-c2cc(=O)c3c(O)c(OC)c(O[C@H]4O[C@H](CO[C@@H]5O[C@@H](C)[C@H](O)[C@@H](O)[C@H]5O)[C@@H](O)[C@H](O)[C@H]4O)cc3o2)cc1 | > 4 mM (inactive) |
| O=C1CSC(=NC(=O)c2ccccc2)N1 | > 4 mM (inactive) |
